Biological target: T1, AfsA (Cellulomonas fimi, UniProt F4H166)
T1 construct: gene Celf_3321; full ORF as BioBrick, E. coli JM109 crude lysate, untagged
T1 sequence (F4H166 1-506): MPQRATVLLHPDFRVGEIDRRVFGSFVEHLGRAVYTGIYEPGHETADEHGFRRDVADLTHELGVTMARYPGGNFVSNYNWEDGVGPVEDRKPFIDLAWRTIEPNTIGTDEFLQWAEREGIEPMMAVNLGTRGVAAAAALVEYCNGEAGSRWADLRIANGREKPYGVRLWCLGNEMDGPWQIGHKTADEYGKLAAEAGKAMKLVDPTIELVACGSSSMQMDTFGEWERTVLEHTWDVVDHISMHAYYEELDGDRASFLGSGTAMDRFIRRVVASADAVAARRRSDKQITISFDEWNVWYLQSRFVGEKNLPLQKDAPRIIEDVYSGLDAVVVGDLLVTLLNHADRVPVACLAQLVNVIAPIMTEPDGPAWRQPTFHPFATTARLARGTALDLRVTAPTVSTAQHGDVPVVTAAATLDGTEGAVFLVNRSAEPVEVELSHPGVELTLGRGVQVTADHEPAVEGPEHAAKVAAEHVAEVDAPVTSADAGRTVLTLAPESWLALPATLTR
Assay: nitrophenol release at […] nm
Format: biochemical
Conditions: pH 5.0, 37 °C, E. coli lysate

| SMILES | nitrophenol release at 405 nm |
| --- | --- |
| O=[N+]([O-])c1ccccc1O[C@@H]1OC[C@@H](O)[C@H](O)[C@H]1O [ONPX, 2-nitrophenyl β-D-xylopyranoside] | AfsA at this temperature and pH being more active with ONPX than PNPA |
| O=[N+]([O-])c1ccc(O[C@@H]2O[C@@H](CO)[C@H](O)[C@H]2O)cc1 [PNPA, 4-nitrophenyl α-L-arabinofuranoside] | AfsA and AfsB have both arabinofuranoisdase and xylosidase activities |
